# Values quoted from earlier work as cited in patent publication US9119775B2, “Use of pilocarpine for hypoptyalism treatment” (priority 2004, dated 2015).
# Experiments:
# [1] = test system: salivary glands; conditions: according to the known pharmacokinetic studies
# [2] = test system: salivary glands
smiles,measurement,setting,value
CC[C@@H]1C(=O)OC[C@@H]1Cc1cncn1C [pilocarpine],duration of the effects of stimulation,[1],4 to 8 h
same,delay of first action of the pilocarpine after intake,"[2]; oral method, after intake",0.45 to 1 h
same,undesirable secondary effects,"[2]; oral tablets, 15 mg per day up to 30 mg per day, conducted over several weeks","nausea, excessive sweating, sensations of dizziness, hot flashes or asthenias"
